According to patent publication US5457114A, “Amidinophenylalanine derivatives, a process for the preparation thereof, use thereof and agents containing these as anticoagulants” (Behringwerke Aktiengesellschaft, priority 1991, dated 1995):

Tests used:
[1] = molecular target: T1, Trypsin from bovine pancreas (Bos taurus, UniProt P00760); assay: Determination of the specificity of the inhibitors (trypsin versus thrombin); format: biochemical; conditions: ratio of the Ki values for trypsin and thrombin; Ki calculated from IC50
T1 construct: from tissue; host or cells: bovine pancreas
T1 sequence (P00760 24-246): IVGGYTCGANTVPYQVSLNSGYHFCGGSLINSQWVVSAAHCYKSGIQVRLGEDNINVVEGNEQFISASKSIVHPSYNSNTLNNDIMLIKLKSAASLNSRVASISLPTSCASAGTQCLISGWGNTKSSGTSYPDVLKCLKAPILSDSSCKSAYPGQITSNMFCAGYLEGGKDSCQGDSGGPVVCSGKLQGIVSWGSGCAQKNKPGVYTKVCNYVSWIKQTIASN
Procedure: The specificity of the inhibitors for thrombin and trypsin was determined. The specificity is defined as the ratio of the Ki values for trypsin and thrombin (Table II). […] The enzymatic reaction was started by adding the substrate Chromozym TRY (7.1×10^-5 M). The liberation of pNA was measured at 405 nm after one hour. The IC50 values for thrombin were determined in an analogous manner, with the exceptions that human thrombin, buffer (50 mM tris-HCl, 50 mM NaCl, pH 7.8) and 5×10^-5 M S 2238 were used. The Ki values were calculated ([…]) from the IC50 value for thrombin and trypsin. The specificities emerged from the ratio of the trypsin and thrombin values.

human thrombin = human thrombin (Homo sapiens, UniProt P00734); assay: Determination of the inhibition constants for thrombin; format: biochemical; conditions: human thrombin 100 pM, 0.1 mM substrate S2238, pH 7.8, 37 degrees C., 10 min preincubation
Procedure: The inhibition constants (Ki) for the substances were determined by known enzyme kinetic methods. The purity of the human thrombin employed was determined to be 87% by means of active site titration. […] Inhibitor and enzyme were preincubated for 10 minutes, and the reaction was started by adding the chromogenic substrate S2238.
The specificity of the inhibitors for thrombin and trypsin was determined. The specificity is defined as the ratio of the Ki values for trypsin and thrombin (Table II). […] The Ki values were calculated ([…]) from the IC50 value for thrombin and trypsin. The specificities emerged from the ratio of the trypsin and thrombin values.

Enteral administration = conditions: in vivo
[2] = rat, i.v.

Compound	Specificity thrombin/trypsin [1]	Ki (human thrombin)	possibility of enteral administration (Enteral administration)	LD50 [2]
N=C(N)c1ccc(CC(NC(=O)CNS(=O)(=O)c2ccc3ccccc3c2)C(=O)N2CCCCC2)cc1 (stereo not drawn) [Napap, beta-naphthylsulfonyl-glycyl-R,S-4-amidinophenylalanyl piperidide, reference compound]	24			
N=C(N)c1ccc(C[C@H](NC(=O)[C@H](CC(N)=O)NS(=O)(=O)c2ccc3ccccc3c2)C(=O)N2CCCCC2)cc1 [Nas-Asn-Aph-Pip]	48	6 nM		
COc1cc(C)c(S(=O)(=O)N[C@@H](CC(=O)O)C(=O)N[C@H](Cc2ccc(C(=N)N)cc2)C(=O)N2CCCCC2)c(C)c1C [Mtr-Asp-D-Aph-Pip, 4-Methoxy-2,3,6-trimethylphenylsulfonyl-L-Asp-D-p-amidinophenylalanyl Piperidide]	125	1.5 nM	possibility of enteral administration	
COc1cc(C)c(S(=O)(=O)N[C@@H](CC(=O)N[C@@H]2O[C@H](C(=O)O)[C@@H](O)[C@H](O)[C@H]2O)C(=O)N[C@H](Cc2ccc(C(=N)N)cc2)C(=O)N2CCCCC2)c(C)c1C [4-Methoxy-2,3,6-trimethylphenylsulfonyl-L-asparaginyl-N-[β-D-glucopyranosyl)uronic acid]-D-p-amidinophenylalanyl Piperidide]	4106	0.085 nM		
COc1cc(C)c(S(=O)(=O)N[C@@H](CC(=O)NCCCC(=O)O)C(=O)N[C@H](Cc2ccc(C(=N)N)cc2)C(=O)N2CCCCC2)c(C)c1C [4-Methoxy-2,3,6-trimethylbenzenesulfonyl-L-aspartic Acid (Gamma-aminobutyric Acid)-D-Aph-piperidide]	1810	0.8 nM		
4-Methoxy-2,3,6-trimethylphenylsulfonyl-L-Cys(SO3 H)-D-p-amidinophenylalanyl Piperidide [Mtr-L-Cys (SO3 H)-D-Aph-Pip]	150	0.6 nM		
COc1cc(C)c(S(=O)(=O)N[C@@H](CC(=O)OC(C)C)C(=O)N[C@H](Cc2ccc(C(=N)N)cc2)C(=O)N2CCCCC2)c(C)c1C [Mtr-Asp(iPr)-Aph-Pip, Mtr-L-Asp(OiPr)-D-Aph-Pip]	378	0.6 nM		
COc1cc(C)c(S(=O)(=O)NC(CC(=O)OC(C)(C)C)C(=O)NC(Cc2ccc(C(=N)N)cc2)C(=O)N2CCCCC2)c(C)c1C [Mtr-Asp(tBu)-Aph-Pip, Mtr-L-Asp(OtBu)-D-Aph-Pip]	297	0.9 nM		
N=C(N)c1ccc(CC(NC(=O)[C@H](CC(=O)O)NS(=O)(=O)c2ccc3ccccc3c2)C(=O)N2CCCCC2)cc1 (stereo partly drawn) [β-naphthylsulfonyl-L-Asp-D,L-Aph-Pip, β-Naphthylsulfonyl-L-Asp-D,L-Aph-Pip]				about 120 mg/kg
COc1cc2ccc(S(=O)(=O)N[C@@H](CC(=O)O)C(=O)N[C@H](Cc3ccc(C(=N)N)cc3)C(=O)N3CCCCC3)cc2cc1OC [Dmn-Asp-D-Aph-Pip, 6,7-Dimethoxy-β-naphthalenesulfonyl-L-Asp-D-p-amidinophenylalanyl Piperidide]	230	6 nM		
Beta-Naphthylsulfonyl-L-aspartic Acid D-p-amidinophenyl-alanyl-piperidide [Nas-Asp-D-Aph-Pip]	7	10 nM		
